Numbers after ± are expanded uncertainties.
Settings: 100 kPa, Liquid, capillary rise

| SMILES | interfacial tension (333.15 K) [mN/m] | interfacial tension (343.15 K) [mN/m] | interfacial tension (298.15 K) [mN/m] | interfacial tension (324.15 K) [mN/m] | interfacial tension (313.15 K) [mN/m] | interfacial tension (302.15 K) [mN/m] | further results |
| --- | --- | --- | --- | --- | --- | --- | --- |
| CCCCCCC [heptane] + O |  |  | 50.6 ± 0.6 |  |  |  | interfacial tension (304.15 K): 50.1 ± 0.6 mN/m; interfacial tension (314.15 K): 49.3 ± 0.6 mN/m; interfacial tension (324.65 K): 48.4 ± 0.4 mN/m; interfacial tension (335.65 K): 47.4 ± 0.4 mN/m |
| CCCCCC [hexane] + O | 47 ± 0.4 | 46.2 ± 0.4 | 50 ± 0.6 |  |  | 49.7 ± 0.6 | interfacial tension (315.65 K): 48.5 ± 0.6 mN/m; interfacial tension (322.15 K): 47.9 ± 0.6 mN/m |
| CCCCCCCO [heptan-1-ol] + O | 7.64 ± 0.08 | 7.59 ± 0.08 |  |  | 7.47 ± 0.08 | 7.28 ± 0.08 | interfacial tension (323.15 K): 7.61 ± 0.08 mN/m |

The next lines start with results.

| interfacial tension (333.15 K) [mN/m] | interfacial tension (343.15 K) [mN/m] | interfacial tension (298.15 K) [mN/m] | interfacial tension (324.15 K) [mN/m] | interfacial tension (313.15 K) [mN/m] | interfacial tension (302.15 K) [mN/m] | SMILES | further results |
| --- | --- | --- | --- | --- | --- | --- | --- |
| 48 ± 0.4 | 47.1 ± 0.4 |  |  |  |  | CCCCCCCC [octane] + O | interfacial tension (312.65 K): 50.5 ± 0.6 mN/m; interfacial tension (323.65 K): 49.7 ± 0.6 mN/m; interfacial tension (330.65 K): 48.8 ± 0.6 mN/m |
| 4.11 ± 0.09 | 3.48 ± 0.08 |  | 4.62 ± 0.08 |  |  | CCCCCC(=O)O [hexanoic acid] + O | interfacial tension (304.65 K): 5.57 ± 0.09 mN/m; interfacial tension (313.65 K): 5.19 ± 0.08 mN/m |
|  | 47.6 ± 0.4 |  | 49.2 ± 0.6 | 50 ± 0.6 |  | CCCCCCCCC [nonane] + O | interfacial tension (303.15 K): 50.9 ± 0.6 mN/m; interfacial tension (333.65 K): 48.4 ± 0.4 mN/m |

Reference: the NIST ThermoML archive (doi:10.1016/j.fluid.2014.06.018)
